# Assay results: US20130267485A1, “Pharmaceutical Combination of Resveratrol and Progestin to Treat and/or Prevent Myoma and/or Endometriosis” (LIBBS FARMACEUTICA LTDA., priority 2010, published 2013)
# How the values were obtained:
# [1] = system: patients with intramural myoma, adenomyosis and endometriosis; assay: Uterus volume before and after treatment, 30 patients (plus comparative resveratrol-only patients); format: in vivo, human
# Description: An experiment was carried out with 30 patients treated with combinations of drospirenone, ethinyl estradiol and resveratrol, as well as with combinations of gestinol and resveratrol, evaluating the volume of the uterus before and after the treatment. In the comparative studies with three patients A, B and C, showing intramural myoma treated only with resveratrol, there was observed a 32% increase for patient A, treated during 12 months; 27% increase for patient B, treated during 3 months; and 22% increase for patient C, treated during 1 month.
# [2] = system: stromal cells extracted from human endometrium tissue; assay: Antiproliferative activity, MTT colorimetric method; format: cell-based
# Description: Negative control: stromal cells of endometrioma incubated with 200 μL of culture medium supplemented with 10% fetal bovine serum and 0.1% DMSO. After calculating the concentrations, the test substances were diluted in 100% DMSO, with stock solution concentrations being of 1 mM to ethinyl estradiol and 10 mM to Dienogest, Resveratrol and Danazol. The use solution was obtained by 1:10 serial dilutions in culture medium supplemented with 10% of fetal bovine serum and 1% of antibiotic/antimycotic. The final concentration of DMSO in the solutions was 0.1%. Endometrium tissues were obtained from 2 voluntary donors by means of videolaparoscopy, by signing the respective terms of consent and ages between 18 and 45 years. A fragment was taken from tissue samples for histological confirmation of endometriosis and the remaining was packaged in sterile flask containing culture medium DMEM/Ham's F12 (Gibco®) with ampicillin and streptomycin (Merck®) antibiotics, and they were taken immediately to the laboratory. […] The resulting suspension was centrifuged and re-suspended in culture medium, and it was then transferred to a 25 cm^2 culture bottle. The purity of cell cultures was tested by immunocytochemistry using rabbit anti-human vimentin monoclonal primary antibody (Spring Bioscience TM) and rabbit anti-IgG secondary polyclonal antibody from goat labeled with Texas Red (Invitrogen®). The cells were maintained and amplified in DMEM/Ham's F12 (Gibco®) 10% FBS medium, with […] of antibiotics ampicillin and streptomycin in culture bottle until reaching the sub-confluence (90% of confluence), and then they were transferred to 96-well plates for conducting the tests for assessing antiproliferative activity. Cells were transferred to 96-well plates to a density of 10,000 cells per well in culture medium with 10% of SBF and incubated during 48 hours. […] Then, MTT tetrazolium salt was added (Invitrogen) at a concentration of 1 mg/mL, according to the incubation periods described in the manufacturer's manual. Cell proliferation was indirectly evaluated using the MTT colorimetric method (Invitrogen) and absorbance measurement at 540 nm in SpectraMax M2 plate reader-Molecular Devices with SoftMax […].2 software. By following this procedure, results of antiproliferative activity. of drugs on cells can be obtained. Data were calculated with the ratio of values obtained from cultures exposed (and in different concentrations, combined or not) and cultures not exposed to drugs. The reference of 100% of cell viability, cells cultured without the presence of drugs, was considered.
smiles,measurement,setting,value
"Oc1ccc(/C=C/c2cc(O)cc(O)c2)cc1 [Resveratrol, trans-3,5,4″-trihidroxystilbene]","increase (intramural myoma, treated only with resveratrol)","[1]; patient A, treated during 12 months",32%
same,"increase (intramural myoma, treated only with resveratrol)","[1]; patient B, treated during 3 months",27%
same,"increase (intramural myoma, treated only with resveratrol)","[1]; patient C, treated during 1 month",22%
same,Proliferation,"[2]; resveratrol alone 1.980 ng/mL, 100% = cells without drugs",94.8%
same,Proliferation,"[2]; resveratrol alone 19.800 ng/mL, 100% = cells without drugs",90.6%
same,Proliferation,[2]; resveratrol alone 197.970 ng/mL (concentration used in the combination),94.7%
same,Proliferation,[2]; resveratrol alone 1979.130 ng/mL,93.3%
same,Proliferation,[2]; resveratrol alone 19797.13 ng/mL,91.1%
